According to patent US6951639B2, “1,4,7,10-tetraazacyclododecane butyltriols, processes for their production and pharmaceutical agents containing them” (Schering AG, priority 1990, dated 2005):

Assays:
mice = test: Acute toxicity determination (LD50), intravenous administration in a caudal vein; assay type: in vivo; settings: mice 18-22 g, 2 ml/min, 7 days observation, death as criterion
Procedure: 1. Acute Toxicity Determination (LD50)
In an individual cage (Rhema/Hofheim company) the contrast medium was administered to mice (weight: 18-22 g) approximately at body temperature in a caudal vein at a rate of 2 ml/min. […]
The contrast media were administered to 3 mice each in 3 doses at variable volumes and constant concentration. The allocation of the animals to the individual doses and the injection sequence of the doses took place by chance.
The observation period of the animals extended over 7 days per injection. The death of the animals was used as the criterion of the effectiveness.
(§1) The statistical evaluation of all study results took place with the probit analysis.

rats = test: Intracisternal administration (ED50), neural compatibility; assay type: in vivo, rats (Wistar-Han-Schering, SPF); settings: once intracisternally, 0.08 ml/animal, posture anomalies, spasms and death as criteria
Procedure: 2. Intracisternal Administration (ED50)
The test substance was administered under light ether anesthesia to an equal number of female and male rats (130-170 g, Wistar-Han-Schering, SPF) once intracisternally by suboccipital puncture in constant volumes (0.08 ml/animal) in different concentrations (3 doses per 10 animals per substance). A volume sampling check (Ringer's solution) followed the study. Posture anomalies, spasms and death of the animals were evaluated as action criteria.
as §1

[1] = tested on: cerebral infarction in the rat; test: NMR-diagnostic in vivo examination: demonstration of a cerebral infarction in the rat; set-up: species or system Wistar rat; settings: image 1 minute after administration
Procedure: The experimental animal was a female Wistar rat weighing 200 g. For the induction of the cerebral infarction, the animal was first anesthetized. After intravenous injection of Bengal red with a dose of 20 mg/kg, an area of the brain about 0.7 cm in diameter near the bregma point was irradiated through the cranium with light of wavelength 548 nm (this corresponds to the maximum absorption of Bengal red), by which, because of the formation of singlet oxygen by a chain of various reactions, there results the aggregation of platelets and thus an infarction in the irradiated region.
The imaging took place in an MRI experimental device of the General Electric company (field strength, 2 teslas). It was performed with a spin echo sequence (TR=400 msec, Ts=20 msec). The layer thickness was 3 mm, and 4 averagings were performed respectively.
An axial sectional plane image without contrast medium where the cranium points downward was taken. The infraction area is indicated only quite weakly by a lower signal intensity in comparison to the healthy tissue. […] The same animal was administered another dose after about 20 minutes, this time in the amount of 0.3 mmol of Gd/kg.

[2] = reference value for monomer contrast media; cited from earlier work

Row | SMILES | Acute i.v. LD50 (mice) | Neural ED50 (rats) | signal enhancement in the area of infarction (MRI) ([1]; 0.1 mmol of Gd/kg, 2 teslas, spin echo) | signal enhancement in the area of infarction (MRI) ([1]; further dose of 0.3 mmol of Gd/kg after about 20 minutes) | intravenous compatibility [2]
1 | O=C([O-])CN1CCN(CC(=O)[O-])CCN(CC(O)C(O)CO)CCN(CC(=O)[O-])CC1.[Gd+3] (stereo not shown) [Example 1, Gadolinium Complex of 10-(2,3,4-trihydroxybutyl)-1,4,7-triscarboxymethyl-1,4,7,10-tetraazacyclododecane] | 35 mmol/kg | 27 µmol/kg | – | – | –
2 | O=C([O-])CN1CCN(CC(=O)[O-])CCN(C(CO)C(O)CO)CCN(CC(=O)[O-])CC1.[Gd+3] (stereo not shown) [Example 2, Gadolinium Complex of 10-(1-hydroxymethyl-2,3-dihydroxypropyl)-1,4,7-triscarboxymethyl-1,4,7,10-tetraazacyclododecane] | 30 mmol/kg | 29 µmol/kg | clear enhancement | enhancement substantially stronger than after the smaller dose | –
3 | OC[C@@H](O)[C@@H](O)[C@H](O)[C@H](O)CO [mannitol] | – | – | – | – | 30 to 40 mmol/kg
